The results in this text go back to US20250222116A1, “PARP-1 DEGRADATION AGENT AND USE THEREOF” (XIZANG HAISCO PHARMACEUTICAL CO., LTD., priority 2021, published 2025).

Data set [1] addresses T1, PARP2 (Homo sapiens (Human), UniProt Q9UGN5). In words: PARP2 protein expression level in MDA-MB-436 cells. The data set is classed as cell-based. Here is the method:
MDA-MB-436 cells were placed in a complete L-15 medium (supplemented with 15% FBS; 10 μg/mL Insulin; 16 μg/mL Glutathione and 1% penicillin-streptomycin solution), and cultured at 37° C. under CO2-free conditions. The cells in the logarithmic growth phase were collected, the cell density was adjusted to 2×10^5 cells/well with the culture medium, and the cells were added to a 6-well cell culture plate at a volume of 1 mL/well and cultured overnight. On day 2, the compound to be tested was prepared to 2-fold the final concentration, 1 mL of the compounds at different concentrations were added to administration wells, a medium containing 0.2% DMSO was added to control wells, and the plate was incubated for 24 hours at 37° C. […] The supernatant was collected and the protein content was determined using the BCA method. The protein sample to be tested was diluted to 2 mg/mL, PARP2 was detected using a fully automated protein expression quantitative analyzer (ProteinSimple), and the internal reference protein was 3-actin (both antibodies were from CST). The software (Compass for SW) of the fully automated protein expression quantitative analyzer was used to process the raw data and calculate the peak area and the PARP2 expression rate relative to the control group. DC50 values were calculated using a four-parameter non-linear fitting model in Graphpad 8.3.0 software.

The nature of data set [2]: Pharmacokinetic test in mice. The data set is classed as in vivo, ICR mice. How it is done: 8.1 Experimental animals: male ICR mice, 20 to 25 g, 18 mice/compound, purchased from Chengdu Ddossy Experimental Animals Co., Ltd.
8.2 Experimental design: on the day of the experiment, 36 ICR mice were randomly grouped according to their body weights. The animals were fasted with water available for 12 to 14 h one day before the administration, and were fed 4 h after the administration.
Before and after the administration, 0.06 mL of blood was taken from the orbit of the animals under isoflurane anesthesia and placed in an EDTAK2 centrifuge tube. The blood was centrifuged at 5000 rpm and 4° C. for 10 min to collect plasma. The blood collection time points for the intravenous group and intragastric administration group were: 0 min, 5 min, 15 min, 30 min, 1 h, 2 h, 4 h, 6 h, 8 h, and 24 h. Before analysis and detection, all samples were stored at −80° C. The samples were analyzed quantitatively by LC-MS/MS.

The test system of data set [3] is Human breast cancer MDA-MB-436 cells. In words: Mouse MDA-MB-436 subcutaneous in vivo transplanted tumor model. The following applies: for TGI: after 28 days of administration. Here is the method:
Human breast cancer MDA-MB-436 cells were placed in Leibovitz's L-15 medium (supplemented with 10 μg/mL insulin, 16 μg/mL glutathione, 10% fetal bovine serum and 1% penicillin-streptomycin solution) and cultured at 37° C. Conventional digestion treatment with trypsin was performed twice a week for passage. When the cell saturation was 80%-90%, and the number reached the requirement, the cells were harvested, counted, and inoculated. BALB/c nude mice (from Beijing Vital River Laboratory Animal Technology Co., Ltd.) were subcutaneously inoculated with 0.2 mL (10×10^6) of MDA-MB-436 cells (plus matrigel, with the volume ratio of 1:1) on the right back. When the average tumor volume reached about 180 mm^3, grouping and administration were performed (marked as Day 0). The solvent group was given 5% DMSO, 30% PEG400 and 65% of 20% sulfobutyl-β-cyclodextrin solution, and the administration group was given 1 or 10 mg/kg compound 10. The administration frequency was once a day, the administration cycle was 29 days, and the drug withdrawal observation period was set to 14 days. After grouping, the tumor diameter was measured twice a week with a vernier caliper. The formula for calculating the tumor volume was: V=0.5×a×b^2, where a and b represented the long and short diameters of the tumor, respectively. […] The tumor growth curve and the animal body weight change curve were as shown in FIG. 1 and FIG. 2, respectively.

Data set [4] has as its target T1, PARP2. In words: PARP2 protein expression level in MDA-MB-231 cells. The format is cell-based. How it is done: MDA-MB-231 cells were placed in a complete DMEM medium (supplemented with 10% FBS and 1% penicillin-streptomycin solution) and cultured at 37° C. and 5% CO2. The cells in the logarithmic growth phase were collected, the cell density was adjusted to 5×10^5 cells/well with the culture medium, and the cells were added to a 6-well cell culture plate at a volume of 1 mL/well, and cultured overnight in a 37° C., 5% CO2 incubator. On day 2, the compound to be tested was prepared to 2-fold the final concentration, 1 mL of the compounds at different concentrations were added to administration wells and a medium containing 0.2% DMSO was added to control wells, and the plate was incubated for 24 hours at 37° C. and 5% CO2. […] The supernatant was collected and the protein content was determined using the BCA method. The protein sample to be tested was diluted to 2 mg/mL, PARP2 was detected using a fully automated protein expression quantitative analyzer (ProteinSimple), and the internal reference protein was 3-actin (both antibodies were from CST). The software (Compass for SW) of the fully automated protein expression quantitative analyzer was used to process the raw data and calculate the peak area and the PARP2 expression rate relative to the control group. DC50 values were calculated using a four-parameter non-linear fitting model in Graphpad 8.3.0 software.

The mark [5] stands for this setting: male, ICR, mouse, iv, i.v. 2.5 mg/kg, plasma.

T1 sequence (Q9UGN5 whole entry): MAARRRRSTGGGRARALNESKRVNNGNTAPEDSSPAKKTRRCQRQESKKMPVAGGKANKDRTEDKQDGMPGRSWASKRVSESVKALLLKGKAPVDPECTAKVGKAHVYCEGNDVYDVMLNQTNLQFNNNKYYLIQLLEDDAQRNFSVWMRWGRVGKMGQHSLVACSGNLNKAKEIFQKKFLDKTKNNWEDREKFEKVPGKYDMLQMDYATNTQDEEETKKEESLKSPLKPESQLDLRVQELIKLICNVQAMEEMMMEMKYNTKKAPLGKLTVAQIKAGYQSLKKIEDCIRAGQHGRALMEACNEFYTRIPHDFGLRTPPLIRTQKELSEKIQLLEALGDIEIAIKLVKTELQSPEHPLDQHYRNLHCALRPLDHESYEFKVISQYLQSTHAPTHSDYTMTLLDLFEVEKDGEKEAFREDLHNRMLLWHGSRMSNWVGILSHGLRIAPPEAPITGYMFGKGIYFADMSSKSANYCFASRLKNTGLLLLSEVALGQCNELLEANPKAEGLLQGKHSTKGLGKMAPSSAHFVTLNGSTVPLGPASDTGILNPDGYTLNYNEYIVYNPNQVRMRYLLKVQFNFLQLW

One may read the AUC(0-t) as the area under the concentration-time curve up to a stated or last time point. What is called clearance is the volume of plasma or blood freed of the substance per unit of time. A lower clearance goes with inefficient removal. As to `CCc1cc2ncc(CN3CCN(c4ccc(C(=O)NC5CCN(c6ccc7c(c6)C(=O)N(C6CCC(=O)NC6=O)C7=O)CC5)nc4)CC3)cc2[nH]c1=O` (centres unmarked) [Compound 10, N-(1-(2-(2,6-dioxopiperidin-3-yl)-1,3-dioxoisoindolin-5-yl)piperidin-4-yl)-5-(4-((7-ethyl-6-oxo-5,6-dihydro-1,5-naphthyridin-3-yl)methyl)piperazin-1-yl)picolinamide], the “PARP1 degradation selectivity over PARP2” value at PARP2 [1] and at PARP2 [4] was “good PARP1 degradation selectivity” in each case. Besides, the DC50 was above 10000 nM on PARP2 [1] (24 hours) and above 5 nM at PARP2 [4] (24 hours). Further, the pharmacokinetic characteristics result in data set [2] is “good pharmacokinetic characteristics”. Further, the F in data set [2] (i.g. 10 mg/kg) is on record as 84.6%. For the same compound, the AUC(0-t) in data set [2] (setting [5]) came out at 20600 ng·h/mL; in data set [2] (male, ICR, mouse, po, i.g. 10 mg/kg, plasma) it was 69800 ng·h/mL. The same compound had a clearance in data set [2] (setting [5]) of 2.02 mL/min/kg. Besides, in data set [2] (male, ICR, mouse, iv, i.v. 2.5 mg/kg, plasma, read-out: Vdss), the Vd worked out at 0.358 L/kg. In data set [3] (1 mg/kg group, 14 days withdrawal observation), the “tumor growth after drug withdrawal” value is “continued to grow”. Also, the results for the TGI in data set [3] (1 mg/kg once a day) and in data set [3] (10 mg/kg once a day) were 47.14% and 111%, respectively. The “tumor volume after drug withdrawal” value in data set [3] (10 mg/kg group, 14 days withdrawal observation) is “consistently smaller than the tumor volume at the time of grouping”. The “body weight of the animals” value in data set [3] (1 or 10 mg/kg once a day) was “no significant decrease in the body weight”. Further, the “efficacy in inhibiting tumor growth” value in data set [3] (mouse MDA-MB-436 model) was “good efficacy in inhibiting tumor growth and inducing tumor regression”. The tolerability entry in data set [3] (mouse MDA-MB-436 model) is “well tolerated”.
